US20180002366A1, “4'-SUBSTITUTED NUCLEOSIDE REVERSE TRANSCRIPTASE INHIBITORS” (MERCK SHARP & DOHME CORP., priority 2014, published 2018)

Assays:
HIV-1 RT enzyme = target: T1, HIV-1 RT enzyme (Human immunodeficiency virus type 1 group M subtype B, UniProt P03366); assay: RT Polymerase Assay; format: biochemical
T1 construct: Full-length wild-type and 2 mutant RT proteins were expressed in Escherichia coli BL21(DE3) cells and purified; made in house; host or cells: Escherichia coli BL21(DE3)
Method: Full-length wild-type and 2 mutant RT proteins were expressed in Escherichia coli BL21(DE3) cells and purified. Briefly, the heterodimeric nucleic acid substrate used in the HIV-1 RT polymerase reactions was generated by annealing biotinylated DNA primer to a 500 nucleotide RNA template. The HIV-1 RT enzyme (final concentration of […]) was combined with an inhibitor compound or DMSO (10% DMSO in the final reaction mixture) in assay buffer (62.5 mM Tris-HCl, pH 7.8, 1.25 mM dithiothreitol, 7.5 mM MgCl2, 100 mM KCl, 0.03% CHAPS, 0.125 mM EGTA). This mixture was pre-incubated for 30 minutes at room temperature in microtiter plates. The polymerization reaction was initiated by the addition of template/primer substrate (final concentration: 16.6 nM) and dNTPs (final concentration: 2 μM dCTP, dGTP, dATP, and 66.6 nM Ru-dUTP). After 90 min of incubation at 37° C., reactions were quenched by the addition of EDTA (25 mM). The resulting mixture was incubated for an additional 5 minutes at room temperature followed by transferring the solution (50 μL) to blocked avidin plate from Meso Scale Discovery (MSD). The mixtures were incubated at room temperature for 60 min prior to the quantification of the reaction product via an ECL 6000 imager instrument.

[1] = system: HIV-1 (H9IIIB virus) replication in MT4-GFP cells; assay: Antiviral Persistence assay; settings: for Fold shift IC50 72 h/24 h: ratio of IC50 72 h to IC50 24 h
Method: HIV-1 replication was monitored using MT4-gag-GFP clone D3 (hereafter designate MT4-GFP), which are MT-4 cells modified to harbor a GFP reporter gene, the expression of which is dependent on the HIV-1 expressed proteins tat and rev. Productive infection of an MT4-GFP cell with HIV-1 results in GFP expression approximately 24 h post-infection. MT4-GFP cells were maintained at 37° C./5% CO2/90% relative humidity in RPMI 1640 supplemented with 10% fetal bovine serum, 100 U/mL penicillin/streptomycin, and 400 μg/mL G418 to maintain the reporter gene. For 72 hour time point persistence assay (72 h plate) and 24 hour time point control assay (24 h plate), MT4-GFP cells were washed and re-suspended in RPMI 1640 containing 10% normal human serum at either 1.6×10^5 or 2.4×10^5 cells/mL (10% NHS). Compound plates were prepared by dispensing compounds dissolved in DMSO into wells of 384 well cell culture plates ([…]) using an ECHO acoustic dispenser. Each compound was tested in a 10 point serial 3-fold dilution (typical final concentrations: 4.2 μM-0.21 nM). Controls included no inhibitor (DMSO only) and a combination of three antiviral agents (efavirenz, indinavir, and an integrase strand transfer inhibitor at final concentrations of 4 μM each). Cells were added (50 μL/well) to compound plates and were incubated at 37° C./5% CO2/90% relative humidity for 24 hours. The cells were washed with 5×40 uL of RPMI 1640 supplemented with 10% NHS and 100 U/mL penicillin/streptomycin. 72 h plate was return back to 37° C. incubator for additional 48 hour incubation. 40 uL of the cells from each well of the 24 h plate or the 72 h plate (after 48 hour incubation post wash) were transferred to a poly-D-lysine coated plate. The cells were then infected with H9IIIB virus at an approximate multiplicity of infection of 0.1 in the same incubation conditions.
Infected cells were quantified at ˜24 h post-infection, by counting the number of green cells in each well using an Acumen eX3 scanner. IC50s for the compounds in Table 4 were determined by non-linear 4-parameter curve fitting.
The antiviral persistence assay is meant to assess for the persistence of antiviral activity upon removal of the nucleoside. […] The publication AIDS Research and Therapy, 2009, 6:5, highlights the value of antiviral persistence.

[2] = system: HIV-1 (H9IIIB virus) replication in MT4-GFP cells; assay: Viking Assay: antiviral potency in a multiple round HIV-1 infection assay; format: cell-based; settings: Human immunodeficiency virus 1, 10% normal human serum, inhibition of reproductive ratio R0 between ~48 h and ~72 h post-infection, read-out: Viking, IC50 (10% NHS)
Method: Assessing Antiviral Potency in a Multiple Round HIV-1 Infection Assay.
Cells were then washed and re-suspended in either RPMI 1640 containing 10% or 50% normal human serum at 1.6×10^5 cells/mL (10% or 50% NHS conditions) or in 100% normal human serum at 2×10^5 cells/mL (100% NHS conditions).
The increase in the number of green cells over ˜24 h period gives the reproductive ratio, R0, which is typically 5-15 and has been shown experimentally to be in logarithmic phase (data not shown). Inhibition of R0 is calculated for each well, and IC50s determined by non-linear 4-parameter curve fitting.

[3] = Human immunodeficiency virus 1, 24 h, read-out: IC50 24 h (nM)
[4] = Human immunodeficiency virus 1, read-out: IC50 72 h (nM)

SMILES	IC50 (HIV-1 RT enzyme)	IC50 [1, 3]	IC50 [1, 4]	Fold shift IC50 72 h/24 h [1]	IC50 [2]
N#C[C@]1(COP(=O)(O)OP(=O)(O)OP(=O)(O)O)O[C@@H](n2ccc3c(N)ncnc32)C[C@@H]1O [Example 18, bis-triethylammonium ((2R,3S,5R)-5-(4-amino-7H-pyrrolo[2,3-d]pyrimidin-7-yl)-2-cyano-3-hydroxytetrahydrofuran-2-yl)methyl triphosphate]	4150 nM	–	–	–	–
C#C[C@]1(CO)O[C@@H](n2cc(C)c3c(N)ncnc32)C[C@@H]1O [Example 3, (2R,3S,5R)-5-(4-amino-5-methyl-7H-pyrrolo[2,3-d]pyrimidin-7-yl)-2-ethynyl-2-(hydroxymethyl)tetrahydrofuran-3-ol]	–	470 nM	2500 nM	5.3	485 nM
C#C[C@]1(COP(=O)(O)OP(=O)(O)OP(=O)(O)O)O[C@@H](n2ccc3c(N)ncnc32)C[C@@H]1O [Example 13, ammonium ((2R,3S,5R)-5-(4-amino-7H-pyrrolo[2,3-d]pyrimidin-7-yl)-2-ethynyl-3-hydroxytetrahydrofuran-2-yl)methyl triphosphate]	933 nM	–	–	–	–
C#C[C@]1(CO)O[C@@H](n2cc(Cl)c3c(N)ncnc32)C[C@@H]1O [Example 6, (2R,3S,5R)-5-(4-amino-5-chloro-7H-pyrrolo[2,3-d]pyrimidin-7-yl)-2-ethynyl-2-(hydroxymethyl)tetrahydrofuran-3-ol]	–	99 nM	970 nM	9.8	128 nM
Cc1cn([C@H]2C[C@H](N=[N+]=[N-])[C@@H](CO)O2)c(=O)[nH]c1=O [AZT, 3′-azido-3′-deoxythymidine, reference compound]	–	37 nM	4710 nM	127	37 nM
C#C[C@]1(CO)O[C@@H](n2cc(Br)c3c(N)ncnc32)C[C@@H]1O [Example 5, (2R,3S,5R)-5-(4-amino-5-bromo-7H-pyrrolo[2,3-d]pyrimidin-7-yl)-2-ethynyl-2-(hydroxymethyl)tetrahydrofuran-3-ol]	–	22000 nM	> 42000 nM	>1.9	209 nM
C#C[C@]1(COP(=O)(O)OP(=O)(O)OP(=O)(O)O)O[C@@H](n2cc(Cl)c3c(N)ncnc32)C[C@@H]1O [Example 17, ammonium ((2R,3S,5R)-5-(4-amino-5-chloro-7H-pyrrolo[2,3-d]pyrimidin-7-yl)-2-ethynyl-3-hydroxytetrahydrofuran-2-yl)methyl triphosphate]	842 nM	–	–	–	–
C#C[C@]1(COP(=O)(O)OP(=O)(O)OP(=O)(O)O)O[C@@H](n2cc(F)c3c(N)ncnc32)C[C@@H]1O [Example 14, ammonium ((2R,3S,5R)-5-(4-amino-5-fluoro-7H-pyrrolo[2,3-d]pyrimidin-7-yl)-2-ethynyl-3-hydroxytetrahydrofuran-2-yl)methyl triphosphate]	210 nM	–	–	–	–
N#C[C@]1(CO)O[C@@H](n2ccc3c(N)ncnc32)C[C@@H]1O [Example 10, (2R,3S,5R)-5-(4-amino-7H-pyrrolo[2,3-d]pyrimidin-7-yl)-3-hydroxy-2-(hydroxymethyl)tetrahydrofuran-2-carbonitrile]	–	170 nM	1800 nM	10.5	128 nM
C#C[C@]1(CO)O[C@@H](n2cc(I)c3c(N)ncnc32)C[C@@H]1O [Example 7, (2R,3S,5R)-5-(4-amino-5-iodo-7H-pyrrolo[2,3-d]pyrimidin-7-yl)-2-ethynyl-2-(hydroxymethyl)tetrahydrofuran-3-ol]	–	17000 nM	17000 nM	1	1030 nM
C#C[C@]1(COP(=O)(O)OP(=O)(O)OP(=O)(O)O)O[C@@H](n2ccc3c(N)nc(Cl)nc32)C[C@@H]1O [Example 16, bis-triethylammonium ((2R,3S,5R)-5-(4-amino-2-chloro-7H-pyrrolo[2,3-d]pyrimidin-7-yl)-2-ethynyl-3-hydroxytetrahydrofuran-2-yl)methyl triphosphate]	1820 nM	–	–	–	–
C#C[C@]1(COP(=O)(O)OP(=O)(O)OP(=O)(O)O)O[C@@H](n2cc(C)c3c(N)ncnc32)C[C@@H]1O [Example 15, ammonium (2R,3S,5R)-5-(4-amino-5-methyl-7H-pyrrolo[2,3-d]pyrimidin-7-yl)-2-ethynyl-3-hydroxytetrahydrofuran-2-yl)methyl triphosphate]	6240 nM	–	–	–	–
C#C[C@]1(COP(=O)(O)OP(=O)(O)OP(=O)(O)O)O[C@@H](c2ccc3c(N)ncnn23)C[C@@H]1O [Example 19, ammonium ((2R,3S,5R)-5-(4-aminopyrrolo[2,1-f][1,2,4]triazin-7-yl)-2-ethynyl-3-hydroxytetrahydrofuran-2-yl)methyl triphosphate]	3540 nM	–	–	–	–
C#C[C@]1(COP(=O)(O)OP(=O)(O)OP(=O)(O)O)O[C@@H](c2cnn3c(N)ncnc23)C[C@@H]1O [Example 20, ammonium ((2R,3S,5R)-5-(4-aminopyrazolo[1,5-a][1,3,5]triazin-8-yl)-2-ethynyl-3-hydroxytetrahydrofuran-2-yl)methyl triphosphate]	1290 nM	–	–	–	–
C#C[C@]1(COP(=O)(O)OP(=O)(O)OP(=O)(O)O)O[C@@H](c2cnc3c(N)ncnn23)C[C@@H]1O [Example 21, ammonium ((2R,3S,5R)-5-(4-aminoimidazo[2,1-f][1,2,4]triazin-7-yl)-2-ethynyl-3-hydroxytetrahydrofuran-2-yl)methyl triphosphate]	905 nM	–	–	–	–
